From US9095653B2, “Method for the timed dosage of medicaments” (BAYER INTELLECTUAL PROPERTY GMBH, priority 2004, dated 2015)
In brackets after ≈: the same amount, converted by molar mass. Where two headings read alike, the source gives them in different places.

What was measured:
[1] = Lipophilicity (LogMA), substance input parameter for PK-Sim; format: physicochemical
[2] = Solubility, substance input parameter; format: physicochemical; details: input parameter for PK-Sim
[3] = Plasma clearance adapted in PK-Sim simulation to experimental literature concentration-time profiles; format: in vivo, humans; details: human, read-out: plasma clearance CL
Method: Drug Dispos. 20, 417-419 (1999)) and a muscle concentration-time profile from the literature (M. Müller, B. v. Osten, R. Schmid, E. Piegler, I. Gerngross, H. Buchegger, H. G. Eichler: “Theophylline kinetics in peripheral tissues in vivo in humans”, Naunyn-Schmiedeberg's Arch. Pharmacol. 352, 438-441 (1995)) (FIG. 2).
The plasma clearance here is CL=0.40 ml/min/kg. (source: [12]) • b) Intravenous infusion of 240 mg over 10 minutes. […] (source: [13]) • c) Peroral administration of 200 mg of an immediately releasing formulation (mean and standard deviation of three bioequivalent immediate release capsules).

[4] = average value for an adult human; cited from earlier work
[5] = cited from earlier work

With `Cn1c(=O)c2[nH]cnc2n(C)c1=O` [Theophylline] the “Lipophilicity (LogMA)” value [1] was −0.2, the solubility [2] was 2800 µg/mL (≈ 15.5 mM) and the clearance ([3]; intravenous infusion of 5.58 mg/kg over 20 minutes, adapted to experimental data (FIG. 2a)) was 0.4 mL/min/kg. The clearance ([3]; intravenous infusion of 240 mg over 10 minutes, adapted to experimental data (FIG. 2b)) was 0.25 mL/min/kg, the clearance ([3]; oral, peroral administration of 200 mg immediately releasing formulation, adapted to experimental data (FIG. 2c)) was 0.5 mL/min/kg and the Free plasma fraction [4] was 59%. For the same compound, the “plasma concentration below which a sufficient anti-asthmatic effect is not generally achieved” value [5] was “below 5 mg/l”.
